Laboratory results: the PolyMetriX glass transition set

*/C=C/C1CCC(*)C1 (repeat unit)
glass transition temperature: 31.00 °C

*C(=O)c1ccc2c(c1)C(=O)N(c1cccc(C(=O)c3ccc(C(=O)c4cccc(N5C(=O)c6ccc(*)cc6C5=O)c4)cc3)c1)C2=O (repeat unit)
glass transition temperature: 240.00 °C

*Oc1ccc(C(=O)c2cccc(C(=O)c3ccc(*)c(C(C)C)c3)c2)cc1CC (repeat unit)
glass transition temperature: 136.00 °C

*Oc1ccc(C(=O)c2cccc(C(=O)c3ccc(*)c(CC)c3)c2)cc1CC (repeat unit)
glass transition temperature: 126.00 °C

*Oc1ccc(C(=O)c2cccc(C(=O)c3ccc(*)cc3)c2)cc1 (repeat unit)
glass transition temperature: 139.00 °C

*Oc1ccc(C(=O)c2cccc(C(=O)c3ccc(Oc4cccc(Cc5cccc(*)c5)c4)cc3)c2)cc1 (repeat unit)
glass transition temperature: 114.00 °C

*c1ccc(-c2ccc(-c3ccc4c(c3)C(CCCCCCCC)(CCCCCCCC)c3cc(-c5ccc(*)s5)ccc3-4)s2)cn1 (repeat unit)
glass transition temperature: 127.50 °C

*c1ccc(Oc2ccc(C(c3ccc(Oc4ccc(N5C(=O)c6ccc(-c7ccc8c(c7)C(=O)N(*)C8=O)cc6C5=O)cc4C(F)(F)F)cc3)(C(F)(F)F)C(F)(F)F)cc2)c(C(F)(F)F)c1 (repeat unit)
glass transition temperature: 223.00 °C

*c1ccc(Oc2ccc(N3C(=O)c4ccc([Si](C)(C)c5ccc6c(c5)C(=O)N(*)C6=O)cc4C3=O)cc2)cc1 (repeat unit)
glass transition temperature: 274.00 °C

*c1ccc(Oc2ccc(Oc3ccc(N4C(=O)c5ccc(-c6cccc7c6C(=O)N(*)C7=O)cc5C4=O)cc3)cc2)cc1 (repeat unit)
glass transition temperature: 285.00 °C

*c1ccc(Oc2ccc(S(=O)(=O)c3ccc(Oc4ccc(N5C(=O)c6ccc(S(=O)(=O)c7ccc8c(c7)C(=O)N(*)C8=O)cc6C5=O)cc4)cc3)cc2)cc1 (repeat unit)
glass transition temperature: 274.00 °C

*c1ccc(Oc2cccc(N3C(=O)c4ccc(-c5ccc6c(c5)C(=O)N(*)C6=O)cc4C3=O)c2)cc1 (repeat unit)
glass transition temperature: 259.00 °C

*c1ccc(Oc2cccc(Oc3ccc(N4C(=O)c5ccc(-c6ccc7c(c6)C(=O)N(*)C7=O)cc5C4=O)cc3)c2)cc1 (repeat unit)
glass transition temperature: 234.00 °C

*c1ccc(Oc2ccccc2Oc2ccc(N3C(=O)c4ccc(-c5ccc6c(c5)C(=O)N(*)C6=O)cc4C3=O)cc2C(F)(F)F)c(C(F)(F)F)c1 (repeat unit)
glass transition temperature: 249.00 °C

*c1ccc(Sc2ccc(Sc3ccc(Sc4ccc(N5C(=O)c6ccc(-c7ccc8c(c7)C(=O)N(*)C8=O)cc6C5=O)cc4)cc3)cc2)cc1 (repeat unit)
glass transition temperature: 227.10 °C

*c1ccc2c(c1)C(*)(C)CC2(C)C (repeat unit)
glass transition temperature: 215.50 °C

*c1ccc2c(c1)C(=O)N(c1ccc(Oc3ccc(N4C(=O)c5ccc(-c6c(-c7ccccc7)c(-c7ccccc7)c(-c7ccc(Oc8ccc(-c9c(-c%10ccccc%10)c(-c%10ccccc%10)c(*)c(-c%10ccccc%10)c9-c9ccccc9)cc8)cc7)c(-c7ccccc7)c6-c6ccccc6)cc5C4=O)cc3)cc1)C2=O (repeat unit)
glass transition temperature: 329.00 °C

*c1ccc2c(c1)C(=O)N(c1ccc(Oc3ccc(N4C(=O)c5ccc(-c6c(-c7ccccc7)c(-c7ccccc7)c(-c7ccc(Sc8ccc(-c9c(-c%10ccccc%10)c(-c%10ccccc%10)c(*)c(-c%10ccccc%10)c9-c9ccccc9)cc8)cc7)c(-c7ccccc7)c6-c6ccccc6)cc5C4=O)cc3)cc1)C2=O (repeat unit)
glass transition temperature: 322.00 °C

*c1ccc2c(c1)C(=O)N(c1ccc(Oc3ccc(N4C(=O)c5ccc(C(*)(C(F)(F)F)C(F)(F)F)cc5C4=O)cc3)c(O)c1)C2=O (repeat unit)
glass transition temperature: 292.00 °C

*c1ccc2c(c1)C(=O)N(c1ccc(Oc3ccc(N4C(=O)c5ccc(C(*)O[Si](C)(C)C)cc5C4=O)cc3)cc1)C2=O (repeat unit)
glass transition temperature: 210.00 °C

*c1ccc2c(c1)C(=O)N(c1ccc(Oc3ccc(N4C(=O)c5ccc(C(F)(F)C(F)(F)C(F)(F)C(*)(F)F)cc5C4=O)cc3)cc1)C2=O (repeat unit)
glass transition temperature: 212.00 °C

*c1ccc2c(c1)C(=O)N(c1ccc(Oc3ccc(N4C(=O)c5ccc(C(F)(F)C(F)(F)C(F)(F)C(F)(F)C(F)(F)C(*)(F)F)cc5C4=O)cc3)cc1)C2=O (repeat unit)
glass transition temperature: 185.00 °C

*c1ccc2c(c1)C(=O)N(c1ccc(Oc3ccc(Oc4ccc(N5C(=O)c6ccc(C(*)(C(F)(F)F)C(F)(F)F)cc6C5=O)cc4)cc3)cc1)C2=O (repeat unit)
glass transition temperature: 279.00 °C

*c1ccc2c(c1)C(=O)N(c1ccc(Oc3cccc(-c4cc(-c5ccccc5)cc(-c5cccc(Oc6ccc(N7C(=O)c8ccc(C(*)(C(F)(F)F)C(F)(F)F)cc8C7=O)cc6)c5)n4)c3)cc1)C2=O (repeat unit)
glass transition temperature: 180.00 °C

*c1ccc2c(c1)C(=O)N(c1ccc(Oc3ccccc3-c3ccccc3Oc3ccc(N4C(=O)c5ccc(C(*)(C(F)(F)F)C(F)(F)F)cc5C4=O)cc3)cc1)C2=O (repeat unit)
glass transition temperature: 78.00 °C

*c1ccc2c(c1)C(=O)N(c1ccc(S(=O)(=O)c3ccc(S(=O)(=O)c4ccc(N5C(=O)c6ccc(C(*)(C(F)(F)F)C(F)(F)F)cc6C5=O)cc4)cc3)cc1)C2=O (repeat unit)
glass transition temperature: 331.00 °C

*c1ccc2c(c1)C(=O)N(c1ccc(Sc3ccc(Sc4ccc(N5C(=O)c6ccc(C(*)(C(F)(F)F)C(F)(F)F)cc6C5=O)cc4)cc3)cc1)C2=O (repeat unit)
glass transition temperature: 257.00 °C

*c1ccc2c(c1)C(=O)N(c1ccc(Sc3ccc(Sc4ccc(Sc5ccc(Sc6ccc(N7C(=O)c8ccc(C(*)(C(F)(F)F)C(F)(F)F)cc8C7=O)cc6)cc5)cc4)cc3)cc1)C2=O (repeat unit)
glass transition temperature: 216.00 °C

*c1ccc2c(c1)C(=O)N(c1ccc3c(c1)-c1cc(N4C(=O)c5ccc(C(*)(C(F)(F)F)C(F)(F)F)cc5C4=O)ccc1C3)C2=O (repeat unit)
glass transition temperature: 394.00 °C

*c1ccc2c(c1)C(=O)N(c1cccc(C(F)(F)C(F)(F)C(F)(F)C(F)(F)C(F)(F)c3cccc(N4C(=O)c5ccc(C(F)(F)C(F)(F)C(*)(F)F)cc5C4=O)c3)c1)C2=O (repeat unit)
glass transition temperature: 111.00 °C

*c1ccc2c(c1)C(=O)N(c1cccc(C(F)(F)C(F)(F)C(F)(F)C(F)(F)C(F)(F)c3cccc(N4C(=O)c5ccc(C(F)(F)C(F)(F)C(F)(F)C(*)(F)F)cc5C4=O)c3)c1)C2=O (repeat unit)
glass transition temperature: 144.00 °C

*c1ccc2c(c1)C(=O)N(c1cccc(C(F)(F)C(F)(F)C(F)(F)c3cccc(N4C(=O)c5ccc(C(F)(F)C(F)(F)C(*)(F)F)cc5C4=O)c3)c1)C2=O (repeat unit)
glass transition temperature: 157.00 °C

*c1ccc2c(c1)C(=O)N(c1cccc(C(c3ccccc3)(c3cccc(N4C(=O)c5ccc(C(*)(C(F)(F)F)C(F)(F)F)cc5C4=O)c3)C(F)(F)F)c1)C2=O (repeat unit)
glass transition temperature: 305.00 °C

*c1ccc2c(c1)C(=O)N(c1cccc(NC(=O)C(F)(F)C(F)(F)C(F)(F)C(F)(F)C(=O)Nc3cccc(N4C(=O)c5ccc(C(*)(C(F)(F)F)C(F)(F)F)cc5C4=O)c3)c1)C2=O (repeat unit)
glass transition temperature: 232.00 °C

*c1ccc2c(c1)C(=O)N(c1cccc(NC(=O)C(F)(F)C(F)(F)C(F)(F)C(F)(F)C(F)(F)C(F)(F)C(=O)Nc3cccc(N4C(=O)c5ccc(C(*)(C(F)(F)F)C(F)(F)F)cc5C4=O)c3)c1)C2=O (repeat unit)
glass transition temperature: 218.00 °C

*c1ccc2c(c1)C(=O)N(c1cccc(Oc3cc(Oc4cccc(N5C(=O)c6ccc(C(*)(C(F)(F)F)C(F)(F)F)cc6C5=O)c4)ccc3P(=O)(c3ccccc3)c3ccccc3)c1)C2=O (repeat unit)
glass transition temperature: 230.00 °C

*c1ccc2c(c1)C(=O)N(c1cccc(Oc3ccc(N4C(=O)c5ccc(-c6c(-c7ccccc7)c(-c7ccccc7)c(-c7ccc(Sc8ccc(-c9c(-c%10ccccc%10)c(-c%10ccccc%10)c(*)c(-c%10ccccc%10)c9-c9ccccc9)cc8)cc7)c(-c7ccccc7)c6-c6ccccc6)cc5C4=O)cc3)c1)C2=O (repeat unit)
glass transition temperature: 300.00 °C

*c1ccc2c(c1)C(=O)N(c1cccc(P(=O)(c3cccc(N4C(=O)c5ccc(C(*)(C(F)(F)F)C(F)(F)F)cc5C4=O)c3)c3cc(C(F)(F)F)cc(C(F)(F)F)c3)c1)C2=O (repeat unit)
glass transition temperature: 247.00 °C

*c1ccc2c(c1)C(=O)N(c1cccc3c(N4C(=O)c5ccc(C(*)(C(F)(F)F)C(F)(F)F)cc5C4=O)cccc13)C2=O (repeat unit)
glass transition temperature: 390.00 °C

*c1ccc2c(c1)C(CCCCCC)(CCCCCC)c1cc(-c3cc(CCCCCC)c(*)cc3CCCCCC)ccc1-2 (repeat unit)
glass transition temperature: 78.80 °C

*c1ccc2c(c1)C(CCCCCC)(CCCCCC)c1cc(-c3ccc4c(c3)C(CC3=NC(Cc5ccccc5)CO3)(CC3=NC(Cc5ccccc5)CO3)c3cc(*)ccc3-4)ccc1-2 (repeat unit)
glass transition temperature: 114.00 °C

*c1ccc2c(c1)C(CCCCCCCC)(CCCCCCCC)c1cc(-c3ccc4c(c3)C(c3ccc(-c5nnc(-c6ccc(C(C)(C)C)cc6)o5)cc3)(c3ccc(-c5nnc(-c6ccc(C(C)(C)C)cc6)o5)cc3)c3cc(*)ccc3-4)ccc1-2 (repeat unit)
glass transition temperature: 213.00 °C

*c1ccc2c(c1)Cc1cc(-n3c(=O)c4cc5c(=O)n(*)c(=O)c5cc4c3=O)ccc1-2 (repeat unit)
glass transition temperature: 322.00 °C

*c1cccc(N2C(=O)c3ccc(-c4cccc5c4C(=O)N(*)C5=O)cc3C2=O)c1 (repeat unit)
glass transition temperature: 341.00 °C

*c1cccc(N2C(=O)c3ccc(P(=O)(c4ccccc4)c4ccc5c(c4)C(=O)N(*)C5=O)cc3C2=O)c1 (repeat unit)
glass transition temperature: 323.00 °C

*c1cccc(OCCCCCCCCCCOc2cccc(N3C(=O)c4ccc(-c5cccc6c5C(=O)N(*)C6=O)cc4C3=O)c2)c1 (repeat unit)
glass transition temperature: 127.00 °C

*c1cccc(OCCCCCCOc2cccc(N3C(=O)c4ccc(-c5ccc6c(c5)C(=O)N(*)C6=O)cc4C3=O)c2)c1 (repeat unit)
glass transition temperature: 153.00 °C

*c1cccc(OCCCOc2cccc(N3C(=O)c4ccc(-c5ccc6c(c5)C(=O)N(*)C6=O)cc4C3=O)c2)c1 (repeat unit)
glass transition temperature: 184.00 °C

*c1cccc(Oc2ccc(P(=O)(c3ccccc3)c3ccccc3)c(Oc3cccc(N4C(=O)c5ccc(-c6ccc7c(c6)C(=O)N(*)C7=O)cc5C4=O)c3)c2)c1 (repeat unit)
glass transition temperature: 234.00 °C
